From patent US12358907B2, “Substituted pyrrolidine amides III” (GRÜNENTHAL GMBH, priority 2019, dated 2025) come the findings set out here.

Where two headings read alike, the source gives them in different places.

One may read the IC50 as the concentration that gives 50% inhibition.

The assay concerns the target glucocorticoid receptor (GAL4 DBD-GR) (Homo sapiens (Human), UniProt P04150). The experiment in a line: GR cell-based assays (GRE agonist / GRE antagonist), CHO-Gal4/GR luciferase reporter. An excerpt:
Potential selective glucocorticoid receptor modulators of this intervention can be tested for modulation of the activity of the glucocorticoid receptor using cell-based assays. These assays involve a Chinese hamster ovary (CHO) cell line which contains fragments of the glucocorticoid receptor as well as fusion proteins. The glucocorticoid receptor fragments used are capable of binding the ligand (e.g. beclomethasone) to identify molecules that compete for binding with glucocorticoid receptor ligands. In more detail, the glucocorticoid receptor ligand binding domain is fused to the DNA binding domain (DBD) of the transcription factor GAL4 (GAL4 DBD-GR) and is stably integrated into a CHO cell line containing a GAL4-UAS-Luciferase reporter construct. […] After cell lysis the luminescence that is produced by luciferase after addition of the substrate is detected and EC50 or IC50 values can be calcuated. Engagement of molecules which induce gene expression via glucocortocoid receptor binding to the DNA leads to expression of the luciferase gene under the control of the fusion protein GAL4 DBD-GR and therefore to a dose-dependent increase of the luminescence signal. Binding of molecules which repress beclomethasone-induced gene expression of the luciferase gene under the control of the fusion protein GAL4 DBD-GR leads to a dose-dependent reduction of the luminescence signal.
The reporter cell line CHO-Gal4/GR consisted of a chinese hamster ovary (CHO) cell line (Leibniz Institute DSMZ—German Collection of Microorganisms and Cell Cultures GmbH: ACC-110) containing a firefly luciferase gene under the control of the GR ligand binding domain fused to the DNA binding domain (DBD) of GAL4 (GAL4 DBD-GR) stably integrated into CHO cells. This cell line was established by stable transfection of CHO cells with a GAL4-UAS-Luciferase reporter construct. In a subsequent step the ligand binding domain of the GR cloned into pIRES2-EGFP-GAL4 containing the DNA binding domain of GAL4 from pFA-AT2 was transfected. This fusion construct activated firefly luciferase expression under the control of a multimerized GAL4 upstream activation sequence (UAS). The signal of the emitted luminescence was recorded by the FLIPR^TETRA. This allowed for specific detection of ligand-induced activation of the GR and therefore for the identification of compounds with agonistic properties. The GAL4/UAS reporter was premixed with a vector that constitutively expressed Renilla luciferase, which served as an internal positive control for transfection efficiency.
The complete culture medium for the assay was: • DMEM F-12 (1:1) MIXTURE (LONZA cat. No: BE04-687F/U1) 500 mL • 5 mL of 100 mM Sodium Pyruvate (LONZA cat. No: BE12-115E) • 25 mL of 7.5% Sodium Bicarbonate (LONZA cat. No BE17-613E) • 6.5 mL of 1 M Hepes (LONZA cat. No: BE17-737E) • 5 mL of 100× Penicillin/Streptomycin (LONZA cat. No DE17-602E) • 50 mL of Fetal Bovine Serum (Euroclone cat. No ECS 0180L) • 0.25 mL of 10 mg/mL Puromycin (InvivoGen cat.: ant-pr-1) • 0.5 mL of 100 mg/mL Zeocin (InvivoGen cat.: ant-zn-1)
Cryo-preserved CHO-Gal4/GR cells were suspended in complete medium and 5000 cells/25 μl/well were seeded into the wells of 384-well polystyrene assay plates (Thermo Scientific, cat. #4332) and cultured at 37° C., 5% CO2 and 95% humidity. After 24 hours growth medium was carefully removed and replaced by 30 μl Opti-MEM (GIBCO, cat. #31985062) as assay buffer. To test the compounds an 8-point half-log compound dilution curve was generated in 100% DMSO starting from a 2 mM stock and compounds were then diluted 1:50 in Opti-MEM. 10 μl of compounds were then added to the wells containing 30 μl Opti-MEM resulting in a final assay concentration range from 10 μM to 0.003 μM in 0.5% DMSO. Compounds were tested at 8 concentrations in quadruplicate data points. […] Finally, cells were lysed with 20 μl of Triton/Luciferin solution and the signal of the emitted luminescence was recorded at the FLIPR^TETRA for 2 minutes. […]

The mark [1] stands for this setting: CHO-Gal4/GR reporter cells, agonist mode (EC50) or antagonist mode against beclometasone (IC50), 6 hour incubation.

glucocorticoid receptor (GAL4 DBD-GR), sequence (P04150 524-758): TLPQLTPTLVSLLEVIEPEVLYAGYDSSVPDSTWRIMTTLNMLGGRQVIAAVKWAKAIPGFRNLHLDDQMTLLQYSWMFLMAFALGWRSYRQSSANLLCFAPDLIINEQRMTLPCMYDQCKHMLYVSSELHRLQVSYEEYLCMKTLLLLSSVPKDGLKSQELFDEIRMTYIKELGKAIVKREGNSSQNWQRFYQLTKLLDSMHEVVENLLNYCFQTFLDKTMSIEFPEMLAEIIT

Regarding `C[C@@H]1C(=O)N(c2ccc3c(cnn3-c3ccc(F)cc3)c2)[C@H](c2ccc(Cl)s2)[C@H]1NC(=O)c1ncccn1` (racemic) [Example 109, N-[rac-(2S,3S,4S)-2-(5-Chloro-thiophen-2-yl)-1-[1-(4-fluorophenyl)-1H-indazol-5-yl]-4-methyl-5-oxo-pyrrolidin-3-yl]-pyrimidine-2-carboxylic acid amide], the IC50 (read-out: IC50 or EC50) is less than 100 nM.

Regarding `CC1(C)C(=O)N(c2ccc3c(cnn3-c3ccc(F)cc3)c2)[C@@H](c2ccccc2)[C@@H]1NC(=O)c1cccnc1` [Example 42b, N-((2S,3R)-1-(1-(4-fluorophenyl)-1H-indazol-5-yl)-4,4-dimethyl-5-oxo-2-phenylpyrrolidin-3-yl)nicotinamide], the 50% inhibitory concentration (IC50) (read-out: IC50 or EC50) was 100 to 1000 nM.

Take `COc1ccc([C@@H]2[C@@H](NC(=O)c3scnc3C)[C@H](C)C(=O)N2c2ccc3c(cnn3-c3ccc(F)cc3)c2)cc1` (racemic) [Example 82, N-[rac-(2R,3S,4S)-1-[1-(4-Fluorophenyl)-1H-indazol-5-yl]-2-(4-methoxyphenyl)-4-methyl-5-oxo-pyrrolidin-3-yl]-4-methyl-thiazole-5-carboxylic acid amide]: for the setting “read-out: IC50 or EC50”, the IC50 lay in the range of 100 to 1000 nM.

As to `C[C@@H]1C(=O)N(c2ccc3c(cnn3-c3ccc(F)cc3)c2)[C@H](c2ccc(Cl)s2)[C@H]1NC(=O)C(C)(F)F` (racemic) [Example 123, N-[rac-(2S,3S,4S)-2-(5-Chloro-thiophen-2-yl)-1-[1-(4-fluorophenyl)-1H-indazol-5-yl]-4-methyl-5-oxo-pyrrolidin-3-yl]-2,2-difluoro-propionamide], the IC50 (read-out: IC50 or EC50) is less than 100 nM.

Consider `O=C(N[C@@H]1[C@@H](c2ccccc2)N(c2ccc3c(cnn3-c3ccc(F)cc3)n2)C(=O)C12CC2)C1CC1` (racemic) [Example 33, N-[rac-((6R,7S)-5-(1-(4-fluorophenyl)-1H-pyrazolo[4,3-b]pyridin-5-yl)-4-oxo-6-phenyl-5-azaspiro[2.4]heptan-7-yl)]cyclopropanecarboxamide], for which the IC50 (read-out: IC50 or EC50) was in the range of 1000 to 15000 nM.

Take `C[C@@H]1C(=O)N(c2ccc3c(cnn3-c3ccc(F)cc3)c2)[C@H](c2ccccc2)[C@H]1NS(C)(=O)=O` (racemic) [Example 61, N-[rac-(2R,3S,4S)-1-[1-(4-Fluorophenyl)-1H-indazol-5-yl]-4-methyl-5-oxo-2-phenyl-pyrrolidin-3-yl]-methanesulfonic acid amide]: the concentration for half-maximal inhibition (IC50) (read-out: IC50 or EC50) lay within 100 to 1000 nM.

In the case of `COc1ccc([C@@H]2[C@@H](NC(=O)c3ccn(C)n3)[C@H](C)C(=O)N2c2ccc3c(cnn3-c3ccc(F)cc3)c2)cc1` (racemic) [Example 83, N-[rac-(2R,3S,4S)-1-[1-(4-Fluorophenyl)-1H-indazol-5-yl]-2-(4-methoxyphenyl)-4-methyl-5-oxo-pyrrolidin-3-yl]-1-methyl-1H-pyrazole-3-carboxylic acid amide], the IC50 (read-out: IC50 or EC50) is less than 100 nM.

As for `Cc1cccc([C@@H]2[C@@H](NC(=O)c3cccnc3)[C@H](C)C(=O)N2c2ccc3c(cnn3-c3ccc(F)cc3)c2)c1` (racemic) [Example 68, N-[rac-(2R,3S,4S)-1-[1-(4-Fluorophenyl)-1H-indazol-5-yl]-4-methyl-2-m-tolyl-5-oxo-pyrrolidin-3-yl]-pyridine-3-carboxylic acid amide], for the setting “read-out: IC50 or EC50”, the IC50 lay within 100 to 1000 nM.

Take `Cc1cccc([C@@H]2[C@@H](NC(=O)c3scnc3C)[C@@H](C)C(=O)N2c2ccc3c(cnn3-c3ccc(F)cc3)c2)c1` (racemic) [Example 71, N-[rac-(2R,3S,4R)-1-[1-(4-Fluorophenyl)-1H-indazol-5-yl]-4-methyl-2-m-tolyl-5-oxo-pyrrolidin-3-yl]-4-methyl-thiazole-5-carboxylic acid amide]: the IC50 (read-out: IC50 or EC50) was 100 to 1000 nM.

On to `O=C(N[C@@H]1[C@@H](c2ccccc2)N(c2ccc3c(cnn3-c3ccc(F)cc3)c2)C(=O)[C@@H]1Cc1nccs1)C1CC1` [Example 150, N-((2R,3S,4R)-1-(1-(4-fluorophenyl)-1H-indazol-5-yl)-5-oxo-2-phenyl-4-(thiazol-2-ylmethyl)pyrrolidin-3-yl)cyclopropanecarboxamide], for which the IC50 (read-out: IC50 or EC50) was in the range of 100 to 1000 nM.

In turn, `C[C@@]1(CC(F)F)C(=O)N(c2ccc3c(cnn3-c3ccc(F)cc3)c2)[C@H](c2ccccc2)[C@H]1NC(=O)C1CC1` (racemic) [Example 136, N-(rac(2R,3S,4S)-4-(2,2-difluoroethyl)-1-(1-(4-fluorophenyl)-1H-indazol-5-yl)-4-methyl-5-oxo-2-phenylpyrrolidin-3-yl)cyclopropanecarboxamide] registered a concentration for half-maximal inhibition (IC50) under setting [1] of less than 100 nM.

As to `Cc1cccc([C@@H]2[C@@H](NC(=O)C3CC3)[C@@H](C)C(=O)N2c2ccc3c(cnn3-c3ccc(F)cc3)c2)c1` (racemic) [Example 70, N-[rac-(2R,3S,4R)-1-[1-(4-Fluorophenyl)-1H-indazol-5-yl]-4-methyl-2-m-tolyl-5-oxo-pyrrolidin-3-yl]-cyclopropanecarboxylic acid amide], under “read-out: IC50 or EC50”, the half-inhibitory concentration (IC50) is less than 100 nM.

With `CC1(C)C(=O)N(c2ccc3c(cnn3-c3ccc(F)cc3)c2)[C@H](c2ccccc2)[C@H]1NC(=O)c1cnco1` [Example 36a, N-((2R,3S)-1-(1-(4-fluorophenyl)-1H-indazol-5-yl)-4,4-dimethyl-5-oxo-2-phenylpyrrolidin-3-yl)oxazole-5-carboxamide], for the setting “read-out: IC50 or EC50”, the IC50 lay within 100 to 1000 nM.

`Cn1cc(C[C@H]2C(=O)N(c3ccc4c(cnn4-c4ccc(F)cc4)c3)[C@H](c3ccccc3)[C@H]2NC(=O)C2CC2)cn1` [Example 139b, N-((2R,3S,4R)-1-(1-(4-fluorophenyl)-1H-indazol-5-yl)-4-((1-methyl-1H-pyrazol-4-yl)methyl)-5-oxo-2-phenylpyrrolidin-3-yl)cyclopropanecarboxamide]: the half-inhibitory concentration (IC50) (read-out: IC50 or EC50) lay within 1000 to 15000 nM.

Consider `O=C(N[C@H]1[C@H](CC(F)F)C(=O)N(c2ccc3c(cnn3-c3ccc(F)cc3)c2)[C@@H]1c1ccccc1)C1CC1` [Example 131, N-((2R,3S,4S)-4-(2,2-difluoroethyl)-1-(1-(4-fluorophenyl)-1H-indazol-5-yl)-5-oxo-2-phenylpyrrolidin-3-yl)cyclopropanecarboxamide], for which, where the note is “read-out: IC50 or EC50”, the concentration for half-maximal inhibition (IC50) was in the range of 100 to 1000 nM.

In turn, `Cc1ncsc1C(=O)N[C@@H]1[C@@H](c2ccccc2)N(c2ccc3c(cnn3-c3ccc(F)cc3)c2)C(=O)C1(C)C` [Example 38b, N-((2R,3S)-1-(1-(4-fluorophenyl)-1H-indazol-5-yl)-4,4-dimethyl-5-oxo-2-phenylpyrrolidin-3-yl)-4-methylthiazole-5-carboxamide] had an IC50 under setting [1] of less than 100 nM.

For `Cn1cc(C(=O)N[C@H]2[C@H](c3ccccc3)N(c3ccc4c(cnn4-c4ccc(F)cc4)c3)C(=O)C2(C)C)cn1` [Example 41b, N-((2S,3R)-1-(1-(4-fluorophenyl)-1H-indazol-5-yl)-4,4-dimethyl-5-oxo-2-phenylpyrrolidin-3-yl)-1-methyl-1H-pyrazole-4-carboxamide], where the note is “read-out: IC50 or EC50”, the concentration for half-maximal inhibition (IC50) was in the range of 1000 to 15000 nM.

As to `Cc1ncsc1C(=O)N[C@H]1[C@H](C)C(=O)N(c2ccc3c(cnn3-c3ccc(F)cc3)c2)[C@@H]1c1ccccc1` (racemic) [Example 60, N-[rac(2R,3S,4S)-1-[1-(4-Fluorophenyl)-1H-indazol-5-yl]-4-methyl-5-oxo-2-phenyl-pyrrolidin-3-yl]-4-methyl-thiazole-5-carboxylic acid amide], the concentration for half-maximal inhibition (IC50) (read-out: IC50 or EC50) is 100 to 1000 nM.

Consider `CC1(C)C(=O)N(c2ccc3c(cnn3-c3ccc(F)cc3)c2)[C@H](c2ccccc2)[C@H]1NC(=O)c1ncccn1` [Example 43a, N-((2R,3S)-1-(1-(4-fluorophenyl)-1H-indazol-5-yl)-4,4-dimethyl-5-oxo-2-phenylpyrrolidin-3-yl)pyrimidine-2-carboxamide], for which the IC50 under setting [1] was less than 100 nM.
